Data on 4 compounds can be found in patent US10441537B2, “Unit doses, aerosols, kits, and methods for treating heart conditions by pulmonary administration” (InCarda Therapeutics, Inc., priority 2017, dated 2019).

Structures can show the parent of a compound that is named as a salt.

The test system of data set [1] is induced atrial fibrillation. The data set can be described thus: Induced atrial fibrillation model in anesthetized dogs, intratracheal (IT) administration. The settings on record: for conversion of induced atrial fibrillation to normal sinus rhythm: pulmonary dose 0.25 mg/kg body weight (FIG. 13), hydrochloride. The class given is in vivo. The method, then: Atrial Fibrillation Model: Anesthesia/Surgical Preparation: A venous catheter was placed in a peripheral vessel (i.e., cephalic) for administration of anesthetic. […] Following induction, animals were endotracheally intubated and mechanically ventilated (˜12 breaths/minute with a tidal volume of 200-300 mL). Subsequently, a cut-down on a jugular vein permitted introduction of a pacing lead into the right atrium. Transthoracic electrodes forming ECG lead II were placed. For test/vehicle article delivery, a 4F catheter was introduced through the trachea and wedged into a small airway, and a venous catheter was placed in a peripheral vessel (i.e., cephalic). […] Approximately 5 min after administration of this parasympathomimetic was started; the following experiments were performed: […] Observations were made for up to 10 minutes. […] Vehicle was only water.

Data set [2] concerns induced supraventricular tachycardia. Briefly: Supraventricular tachycardia (SVT) model in anesthetized dogs, IT vs IV. The class given is in vivo. The settings on record: for cardiovascular effect when given by intratracheal instillation (summary): dog, in vivo. The protocol:
Supraventricular Tachycardia Model:
Anesthesia/Surgical Preparation:
A venous catheter was placed in a peripheral vessel (i.e., cephalic) for administration of anesthetic(s). For anesthesia induction, all animals were given a combination of diazepam (˜0.5 mg/kg) and ketamine (˜10 mg/kg) intravenously through this venous catheter. Anesthesia was sustained until completion of the study with an intravenous infusion of pentobarbital (5-15 mg/kg/hr). Following induction, animals were endotracheally intubated and mechanically ventilated (˜12 breaths/min with a tidal volume of 200-300 mL).
Subsequently, a cut-down on a jugular vein permitted the introduction of a pacing lead into the right atrium. Similarly, for arterial pressure monitoring, a solid-state micromanometer catheter (Millar Instruments) was advanced into the aortic root via a cut-down over an artery (e.g., femoral, carotid). Transthoracic electrodes forming ECG lead II was placed. For vehicle/test article delivery, a 4F catheter was introduced through the trachea and wedged into a small airway, and a venous catheter was placed in a peripheral vessel (i.e., cephalic).
Following instrumentation/hemodynamic stabilization (for at least 15 minutes), right atrial pacing (5-10 V, 40 Hz, 2 ms pulses) was established in order to induce supraventricular tachycardia (SVT); pacing and SVT was sustained throughout the duration of the experiments. Approximately 5 minutes after onset of SVT and while monitoring ECG/arterial pressure continuously, the animals were administered three escalating doses (one at a time) of a test article; each dose was delivered as a bolus (˜3 mL) directly into a small airway through the intratracheal catheter (IT). Following dosing, the heart-rate (HR) and arterial pressure response were monitored for 15 minutes.
Subsequently (once the response to three IT doses had been recorded), hemodynamic recovery was allowed for approximately 30 minutes, and the electrocardiographic/hemodynamic response to the highest test-article dose was re-evaluated; however, for comparison purposes, this dose was delivered intravenously (IV).
Overall, two groups/test-articles were studied, and up to two animals were assigned to each group (n=2/group): one group received esmolol HCL (0.5-1.0 mg/kg, ESM), while the other received adenosine (0.25-1.0 mg/kg, ADN); only one test article was administered to per animal.

In the case of `COc1ccc([C@@H]2Sc3ccccc3N(CCN(C)C)C(=O)[C@@H]2OC(C)=O)cc1` [diltiazem, diltiazem hydrochloride], the “conversion of Atrial Fibrillation to normal sinus rhythm” value in data set [1] (IT bolus) is “rapidly converted the Atrial Fibrillation to normal sinus rhythm”. Besides, in data set [1] (dog, in vivo), the “cardiovascular effect when given by intratracheal instillation (summary)” value (“cardiovascular effect when given” below) is listed as “clear cardiovascular effect”. In addition, the “mean arterial blood pressure (MAP)” value in data set [1] (dog, in vivo, 0.25 mg/kg) was “notable drop in mean arterial blood pressure”. Moreover, in data set [1] (pulmonary dose 0.25 mg/kg), the PQ interval entry was “prolonged the PQ interval” and the heart rate entry is “slowed down but marginally”. The “conversion of induced atrial fibrillation to normal sinus rhythm” value in data set [1] (0.25 mg/kg) was “converted the induced atrial fibrillation to normal sinus rhythm”. The “conversion of induced atrial fibrillation to normal sinus rhythm” value in data set [1] (listed as diltiazem HCl, 0.25 mg/kg) is reported as “Afib converting after administration”. The “pulmonary vs IV route” value in data set [2] (0.25 mg/kg) is “comparable in all aspects”. Also, the PR interval entry in data set [2] (IV or pulmonary route) is reported as “prolonged the PR interval”. Where the note is “3.5 mg/mL”, the “pH of solution in water” value is listed as 6.7. For the setting “distilled water, diltiazem hydrochloride 50 mg/ml, flecainide acetate 30 mg/ml”, the appearance of solution entry was “clear with no visible particulate matter”.

With `COC(=O)CCc1ccc(OCC(O)CNC(C)C)cc1` (stereo not shown) [esmolol, esmolol HCl], the “period of AV block” value in data set [2] (0.5 mg/kg via the lung (FIG. 17, 18)) is “AV block induced”. The “period of AV block” value in data set [2] (0.75 mg/kg via the lung (FIG. 20)) is recorded as “AV block induced”. For the same compound, in data set [2], the “cardiovascular effect when given” value was “probable effect”. Besides, in data set [2] (elevating IT doses), the AV block was 2nd degree AV block at lower doses and the “PR intervals in the ECG traces” value is recorded as “prolonging the PR intervals”. In addition, the electrophysiological effects entry in data set [2] (higher dose 1.0 mg/kg) was “did not produce the same electrophysiological effects”.

Regarding `Nc1ncnc2c1ncn2[C@@H]1O[C@H](CO)[C@@H](O)[C@H]1O` [adenosine], in data set [2], the “cardiovascular effect when given” value is reported as “a clear response was not observed”. In data set [2] (via the lung), the “effect on the heart” value is given as “did not have any effect on the heart”.

Regarding `CN(CCOc1ccc(NS(C)(=O)=O)cc1)CCc1ccc(NS(C)(=O)=O)cc1` [dofetilide], in data set [1] (IT bolus), the “effect on ventricular rate” value is listed as “marginally slowed the ventricular rate”. Besides, the “cardiovascular effect when given” value in data set [1] (dog, in vivo) is recorded as “probable effect”. Further, the heart rate result in data set [1] (escalating pulmonary doses of 10-40 mcg/kg body weight) is reported as “minor reduction in heart rate”.
